Laboratory results taken from patent publication US20120135995A1, “FUNGICIDAL DIPHENYL-SUBSTITUTED PYRIDAZINES” (E.I. Dupont de Nemours and Company, priority 2009, published 2012).

What was measured:
Type in all cases: in vivo
Septoria nodorum = assay: Test C: wheat seedlings sprayed, next day inoculated with Septoria nodorum (wheat glume blotch), visual disease rating; conditions: sprayed day before inoculation; for pest or weed control at 40 ppm / pest or weed control at 200 ppm: Parastagonospora nodorum; for pest or weed control at 40 ppm: 40 ppm test suspension (*); for pest or weed control at 200 ppm / Test C rating (disease control): 200 ppm test suspension
Text: (§1) General protocol for preparing test suspensions for Tests A-F: the test compounds were first dissolved in acetone in an amount equal to 3% of the final volume and then suspended at the desired concentration (in ppm) in acetone and purified water (50/50 mix) containing 250 ppm of the surfactant Trem® 014 (polyhydric alcohol esters). The resulting test suspensions were then used in Tests A-F. Spraying a 200 ppm test suspension to the point of run-off on the test plants was the equivalent of a rate of 500 g/ha. An asterisk “*” next to the rating value indicates a 40 ppm test suspension.
(§2) The test suspension was sprayed to the point of run-off on wheat seedlings. The following day the seedlings were inoculated with a spore suspension of Septoria nodorum (the causal agent of wheat glume blotch) and incubated in a saturated atmosphere at 24° C. for 48 h, and then moved to a growth chamber at 20° C. for 6 days, after which time visual disease ratings were made.
(§3) Results for Tests A-F are given in Table A. In the Table, a rating of 100 indicates 100% disease control and a rating of 0 indicates no disease control (relative to the controls). A dash (-) indicates no test results. All results are for 200 ppm except where followed by “*”, which indicates 40 ppm.

Botrytis cinerea = assay: Test A: tomato seedlings sprayed, next day inoculated with Botrytis cinerea (tomato Botrytis), visual disease rating; conditions: sprayed day before inoculation; for pest or weed control at 40 ppm / pest or weed control at 200 ppm: Botrytis cinerea; for pest or weed control at 40 ppm: 40 ppm test suspension (*); for pest or weed control at 200 ppm / Test A rating (disease control): 200 ppm test suspension
Text: as §1
The test suspension was sprayed to the point of run-off on tomato seedlings. The following day the seedlings were inoculated with a spore suspension of Botrytis cinerea (the causal agent of tomato Botrytis) and incubated in saturated atmosphere at 20° C. for 48 h, and then moved to a growth chamber at 24° C. for 3 days, after which time visual disease ratings were made.
as §3

Alternaria solani = assay: Test B: tomato seedlings sprayed, next day inoculated with Alternaria solani (tomato early blight), visual disease rating; conditions: sprayed day before inoculation; for pest or weed control at 40 ppm / pest or weed control at 200 ppm: Alternaria solani; for pest or weed control at 40 ppm: 40 ppm test suspension (*); for pest or weed control at 200 ppm / Test B rating (disease control): 200 ppm test suspension
Text: as §1
The test suspension was sprayed to the point of run-off on tomato seedlings. The following day the seedlings were inoculated with a spore suspension of Alternaria solani (the causal agent of tomato early blight) and incubated in a saturated atmosphere at 27° C. for 48 h, and then moved to a growth chamber at 20° C. for 5 days, after which time visual disease ratings were made.
as §3

Erysiphe graminis = assay: Test F: wheat seedlings sprayed, next day inoculated with Erysiphe graminis (wheat powdery mildew), visual disease rating; conditions: sprayed day before inoculation; for pest or weed control at 40 ppm / pest or weed control at 200 ppm: Blumeria graminis; for pest or weed control at 40 ppm: 40 ppm test suspension (*); for pest or weed control at 200 ppm / Test F rating (disease control): 200 ppm test suspension
Text: as §1
The test suspension was sprayed to the point of run-off on wheat seedlings. The following day the seedlings were inoculated with a spore dust of Erysiphe graminis, (the causal agent of wheat powdery mildew) and incubated in a growth chamber at 20° C. for 8 days, after which time visual disease ratings were made.
as §3

[1] = system: Puccinia recondita f. sp. tritici; assay: Test E2: wheat seedlings sprayed, next day inoculated with Puccinia recondita f. sp. tritici (wheat leaf rust), visual disease rating; conditions: sprayed day before inoculation; for pest or weed control at 40 ppm / pest or weed control at 200 ppm: Puccinia recondita; for pest or weed control at 40 ppm: 40 ppm test suspension (*); for pest or weed control at 200 ppm / Test E2 rating (disease control): 200 ppm test suspension
Text: as §1
as §2, with “Puccinia recondita f. sp. tritici” for “Septoria nodorum”, “leaf rust)” for “glume blotch)”, “20°” for “24°”, “24” for “48”, “7” for “6”
as §3

Septoria tritici = assay: Test D: wheat seedlings sprayed, next day inoculated with Septoria tritici (wheat leaf blotch), visual disease rating; conditions: sprayed day before inoculation; for pest or weed control at 40 ppm / pest or weed control at 200 ppm: Zymoseptoria tritici; for pest or weed control at 40 ppm: 40 ppm test suspension (*); for pest or weed control at 200 ppm / Test D rating (disease control): 200 ppm test suspension
Text: as §1
as §2, with “tritici” for “nodorum”, “leaf” for “glume”, “in” for “in a”, “19” for “6”
as §3

| Structure (SMILES) | pest or weed control at 40 ppm (Septoria nodorum) [%] | pest or weed control at 40 ppm (Botrytis cinerea) [%] | pest or weed control at 40 ppm (Alternaria solani) [%] | pest or weed control at 40 ppm (Erysiphe graminis) [%] | pest or weed control at 40 ppm [1] [%] | pest or weed control at 40 ppm (Septoria tritici) [%] | Test C rating (disease control) (Septoria nodorum) [%] | Test A rating (disease control) (Botrytis cinerea) [%] | Test B rating (disease control) (Alternaria solani) [%] | Test F rating (disease control) (Erysiphe graminis) [%] | Test E2 rating (disease control) [1] [%] | Test D rating (disease control) (Septoria tritici) [%] | also measured |
| --- | --- | --- | --- | --- | --- | --- | --- | --- | --- | --- | --- | --- | --- |
| COc1cc(OC)cc(-c2c(C)nnc(C)c2-c2c(F)cc(OC)cc2F)c1 [Compound 11, 4-(2,6-difluoro-4-methoxyphenyl)-5-(3,5-dimethoxyphenyl)-3,6-dimethylpyridazine] | 99 | 100 | 100 | 100 | 100 | 100 |  |  |  |  |  |  |  |
| COc1cc(OC)cc(-c2c(C(C)(C)O)nnc(C)c2-c2c(F)cc(F)cc2F)c1 [Compound 21, 4-(3,5-dimethoxyphenyl)-α,α,6-trimethyl-5-(2,4,6-trifluorophenyl)-3-pyridazinemethanol] | 40 | 100 | 99 | 100 | 100 | 98 |  |  |  |  |  |  |  |
| COc1cc(OC)cc(-c2c(C)nnc(C)c2-c2c(F)cc(F)cc2F)c1 [Compound 9, 4-(3,5-dimethoxyphenyl)-3,6-dimethyl-5-(2,4,6-trifluorophenyl)pyridazine] | 100 | 100 | 99 | 100 | 100 | 100 |  |  |  |  |  |  |  |
| COc1cc(OC)cc(-c2c(C)nnc(C)c2-c2c(F)ccc(F)c2F)c1 [Compound 17, 4-(3,5-dimethoxyphenyl)-3,6-dimethyl-5-(2,3,6-trifluorophenyl)pyridazine] |  |  |  |  |  |  |  |  |  |  |  |  | pest or weed control at 200 ppm (Septoria nodorum): 99%; pest or weed control at 200 ppm (Botrytis cinerea): 100%; pest or weed control at 200 ppm (Alternaria solani): 100%; pest or weed control at 200 ppm (Erysiphe graminis): 100%; pest or weed control at 200 ppm [1]: 100%; pest or weed control at 200 ppm (Septoria tritici): 99% |
| COc1cc(OC)cc(-c2c(Cl)nnc(C)c2-c2c(F)cc(F)cc2F)c1 [Compound 12, 3-chloro-4-(3,5-dimethoxyphenyl)-6-methyl-5-(2,4,6-trifluorophenyl)pyridazine] | 99 | 99 | 100 | 100 | 100 | 99 |  |  |  |  |  |  |  |
| COc1cc(OC)cc(-c2c(C)nnc(C)c2-c2c(F)cccc2F)c1 [Compound 31] |  |  |  |  |  |  | 100 | 100 | 99 | 98 | 99 | 100 |  |
| COc1cc(OC)c(Cl)c(-c2c(C)nnc(C)c2-c2c(F)cccc2F)c1Cl [Compound 34] |  |  |  |  |  |  | 0 | 100 | 0 | 97 | 100 | 100 |  |
| COc1cc(OC)cc(-c2c(Cl)nnc(C)c2-c2ccc(F)cc2)c1 [Compound 13] |  |  |  |  |  |  | 0 | 8 | 0 | 39 | 19 | 45 |  |
| COc1cc(OC)cc(-c2c(Cl)nnc(C)c2-c2c(F)cccc2F)c1 [Compound 4, 3-chloro-4-(3,5-dimethoxyphenyl)-6-methyl-5-(2,6-difluorophenyl)pyridazine] |  |  |  |  |  |  |  |  |  |  |  |  | pest or weed control at 200 ppm (Septoria nodorum): 0%; pest or weed control at 200 ppm (Botrytis cinerea): 95%; pest or weed control at 200 ppm (Alternaria solani): 97%; pest or weed control at 200 ppm (Erysiphe graminis): 95%; pest or weed control at 200 ppm [1]: 100%; pest or weed control at 200 ppm (Septoria tritici): 98% |
| COc1cc(OC)cc(-c2c(Cl)nnc(C)c2-c2ccc(F)cc2F)c1 [Compound 3] |  |  |  |  |  |  | 0 | 91 | 31 | 79 | 97 | 97 |  |
| COc1cc(OC)c(Cl)c(-c2c(C)nnc(Cl)c2-c2c(F)cccc2F)c1 [Compound 28] |  |  |  |  |  |  | 78 | 100 | 100 | 100 | 100 | 100 |  |
| COc1ccc(-c2c(C)nnc(Cl)c2-c2cc(OC)cc(OC)c2)cc1 [Compound 2] |  |  |  |  |  |  | 0 | 95 | 58 | 26 | 74 | 62 |  |
| COc1cc(OC)cc(-c2cnnc(C)c2-c2c(F)cc(F)cc2F)c1 [Compound 6, 5-(3,5-dimethoxyphenyl)-3-methyl-4-(2,4,6-trifluorophenyl)pyridazine] |  |  |  |  |  |  |  |  |  |  |  |  | pest or weed control at 200 ppm (Septoria nodorum): 96%; pest or weed control at 200 ppm (Botrytis cinerea): 97%; pest or weed control at 200 ppm (Alternaria solani): 100%; pest or weed control at 200 ppm (Erysiphe graminis): 100%; pest or weed control at 200 ppm [1]: 100%; pest or weed control at 200 ppm (Septoria tritici): 93% |
| COc1cc(OC)cc(-c2cnnc(CCl)c2-c2c(F)cc(F)cc2F)c1 [Compound 7, 3-(chloromethyl)-5-(3,5-dimethoxyphenyl)-4-(2,4,6-trifluorophenyl)-pyridazine] |  |  |  |  |  |  |  |  |  |  |  |  | pest or weed control at 200 ppm (Septoria nodorum): 94%; pest or weed control at 200 ppm (Botrytis cinerea): 91%; pest or weed control at 200 ppm (Alternaria solani): 26%; pest or weed control at 200 ppm (Erysiphe graminis): 99%; pest or weed control at 200 ppm [1]: 98%; pest or weed control at 200 ppm (Septoria tritici): 96% |
| COc1cc(OC)cc(-c2c(C)nnc(Cl)c2-c2c(F)ccc(F)c2F)c1 [Compound 15, 3-chloro-5-(3,5-dimethoxyphenyl)-6-methyl-4-(2,3,6-trifluorophenyl)pyridazine] |  |  |  |  |  |  |  |  |  |  |  |  | pest or weed control at 200 ppm (Septoria nodorum): 84%; pest or weed control at 200 ppm (Botrytis cinerea): 100%; pest or weed control at 200 ppm (Alternaria solani): 100%; pest or weed control at 200 ppm (Erysiphe graminis): 99%; pest or weed control at 200 ppm [1]: 100%; pest or weed control at 200 ppm (Septoria tritici): 99% |
| COc1cc(OC)cc(-c2c(Cl)nnc(C)c2-c2ccc(Cl)cc2)c1 [Compound 1] |  |  |  |  |  |  | 0 | 0 | 0 | 0 | 0 | 0 |  |
| COc1cc(OC)cc(-c2c(C)nnc(Cl)c2-c2c(F)cc(F)cc2F)c1 [Compound 8, 3-chloro-5-(3,5-dimethoxyphenyl)-6-methyl-4-(2,4,6-trifluorophenyl)-pyridazine] | 100 | 100 | 100 | 99 | 100 | 99 |  |  |  |  |  |  |  |
| COc1cc(OC)c(Cl)c(-c2c(C)nnc(Cl)c2-c2c(F)cc(F)cc2F)c1 [Compound 23, 3-chloro-5-(2-chloro-3,5-dimethoxyphenyl)-6-methyl-4-(2,4,6-trifluoro-phenyl)pyridazine] | 100 | 100 | 100 | 100 | 100 | 100 |  |  |  |  |  |  |  |
| COc1cc(OC)cc(-c2c(C)nnc(Cl)c2-c2c(F)cc(OC)cc2F)c1 [Compound 10, 3-chloro-4-(2,6-difluoro-4-methoxyphenyl)-5-(3,5-dimethoxyphenyl)-6-methylpyridazine] | 98 | 100 | 100 | 99 | 100 | 99 |  |  |  |  |  |  |  |
